Reference: patent US20220040109A1, “KIDNEY-TARGETING DRUG DELIVERY CARRIER” (KYOTO PHARMACEUTICAL UNIVERSITY, priority 2017, published 2022)

Experiment: Toxicity in mouse (plasma creatinine, BUN, kidney histology)
Format: in vivo, ddY mice
Settings: compound 1a 1 mg/kg intravenous once per day for 5 days
Method: Six days after the first intravenous injection, under isoflurane anesthesia, the blood was collected from the vena cava to sacrifice the mice. Plasma creatinine and urea nitrogen (BUN) levels were respectively measured using a creatinine measurement kit (LabAssay, Wako) and a BUN measurement kit (DIUR-100, BioAssay System). Thereafter, kidneys were excised, fixed with 4% paraformaldehyde, and embedded in paraffin blocks. Then, 5-μm-thick sections were prepared. The kidney sections were stained with hematoxylin and eosin, and renal injury was evaluated using a light microscopy (Biozero, KEYENCE). In addition, when HgCl2 was administered as a positive control, plasma creatinine, BUN level and kidney sections were also evaluated by the above-mentioned methods.

Structure (SMILES): [Cl][Hg][Cl] [HgCl2]
- histological sections of renal tissues (hematoxylin and eosin) (HgCl2 positive control, FIG. 10C): infiltration and necrosis of inflammatory cells and damaged cells were observed
- plasma concentration of creatinine (HgCl2 subcutaneous positive control, FIG. 10A): significantly increased
- plasma concentration of BUN (HgCl2 subcutaneous positive control, FIG. 10B): significantly increased
